Results from patent publication US5574070A, “Substituted guanidines having high binding to the sigma receptor and the use thereof” (priority 1993, dated 1996).
Structures can show the parent of a compound that is named as a salt. Where two headings read alike, the source gives them in different places.

Columns and labels:
sigma receptor = assay: [3H]DTG displacement radioligand binding assay, guinea pig brain membranes
[3H]MK-801 = [3H]MK-801 displacement binding; conditions: read-out: IC50 vs [3H]MK-801; Table II; ± s.e.m. (n)
anxiety behavior of mice = assay: black:white test box (light/dark exploration) of mice
[1] = target: T1, sigma receptor from guinea pig brain (Cavia porcellus, UniProt Q60492); assay: [3H]AZ-DTG binding and photoaffinity labeling of the sigma receptor; conditions: 10 uM
T1 construct: from tissue; host or cells: guinea pig brain membranes
Experimental: The filters were then irradiated with long-wavelength UV light for a 15 minute period. Filter-bound proteins were solubilized with 50 mM Tris pH 7.4, 0.1% sodium dodecyl sulfate. Solubilized proteins were subjected to SDS-polyacrylamide gel electrophoresis.

[2] = list of especially preferred compounds, read-out: IC50 (high binding to the sigma receptor)
[3] = read-out: IC50 vs [3H]DTG, Table II, ± s.e.m. (n)
[4] = Example 25, guinea pig brain membrane homogenates, read-out: IC50 binding values
[5] = read-out: IC50 vs [3H]DTG, Table I, guinea pig brain membranes

T1 sequence (Q60492 whole entry): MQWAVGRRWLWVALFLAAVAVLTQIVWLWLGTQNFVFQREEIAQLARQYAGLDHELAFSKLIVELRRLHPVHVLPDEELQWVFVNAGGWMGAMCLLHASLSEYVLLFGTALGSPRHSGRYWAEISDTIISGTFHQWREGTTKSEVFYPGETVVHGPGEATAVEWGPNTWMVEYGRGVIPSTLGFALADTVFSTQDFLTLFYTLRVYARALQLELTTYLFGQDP

## N=C(Nc1ccccc1C(F)(F)F)NC12CC3CC(CC(C3)C1)C2 [N-(Adamantan-1-yl)-N'-(2-trifluoromethylphenyl)guanidine]
Sigma receptor; [2]
  IC50: 0.00744 µM
Sigma receptor; [3]
  IC50: 0.00744 µM
[3H]MK-801
  IC50: 23.1 µM

## N=C(Nc1ccccc1I)Nc1ccccc1C=Cc1ccccc1 [N-(2-styrylphenyl)-N'-(2-iodophenyl)guanidine]
Anxiety behavior of mice; i.p.
  latency to entering the dark compartment: decreased the latency to entering the dark compartment
  numbers of line crossings and/or rears in the light compartment: did not affect the numbers of line crossings or rears in the light compartment
  proportion of time in light area / percentage of time in black compartment: No significant change in the percentage time in the black compartment

## NCCc1c[nH]c2ccc(O)cc12 [5-OH-tryptamine, reference compound]
Sigma receptor; 10 uM
  displacement of [3H]DTG: no significant displacement
[1]
  effect on [3H]AZ-DTG labeling of the 29 kD polypeptide: unaffected

## N=C(NC12CC3CC(CC(C3)C1)C2)NC12CC3CC(CC(C3)C1)C2 [DAG, N,N'-di-(adamantan-1-yl)guanidine]
Sigma receptor
  in vitro [3H]DTG displacement activity: found to possess the aforesaid in vitro [^3 H]DTG displacement activity
Sigma receptor; [4]
  IC50: 0.0118 ± 0.0034 µM
Sigma receptor; [2]
  IC50: 0.0165 µM
Sigma receptor; [5]
  IC50: 0.017 ± 0.003 µM
Anxiety behavior of mice; oral
  latency to entering the dark compartment: increase in the latency to entering the dark compartment
  numbers of line crossings and/or rears in the light compartment (vs dark): increase in the numbers of line crossings and rears in the light compartment
  sedation: total numbers of rears and line crossings: did not decrease significantly
Anxiety behavior of mice; oral, 1 mg/kg
  anxiolytic activity: have anxiolytic activity when orally administered
Anxiety behavior of mice; s.c.
  numbers of line crossings and/or rears in the light compartment (vs dark): increased at the expense of those in the dark compartment
  proportion of time spent in the lighted area: tended to increase the proportion of time the mice spent in the larger, lighted area
  sedation: total numbers of rears and line crossings: did not decrease significantly showing that the drug was not sedative at this level

## N=C(Nc1ccc(F)cc1F)NC12CC3CC(CC(C3)C1)C2 [N-(Adamantan-1-yl)-N'-(2,4-difluorophenyl)guanidine]
Sigma receptor; [2]
  IC50: 0.00892 µM
Sigma receptor; [3]
  IC50: 0.00892 µM
[3H]MK-801
  IC50: > 10 µM

## N=C(NC1CCCCC1)NC12CC3CC(CC(C3)C1)C2 [AdChG, N, Adamantan-1-yl-N'-cyclohexylguanidine HCl]
Sigma receptor
  in vitro [3H]DTG displacement activity: found to possess the aforesaid in vitro [^3 H]DTG displacement activity
Sigma receptor; [4]
  IC50: 0.0125 ± 0.0022 µM
Sigma receptor; [2]
  IC50: 0.0125 µM
Sigma receptor; [5]
  IC50: 0.013 ± 0.002 µM
Anxiety behavior of mice; s.c.
  latency to entering the dark compartment: dose-dependent increase in the latency to entering the dark compartment
  numbers of line crossings and/or rears in the light compartment (vs dark): increase in the number of rears in the light compartment
  sedation: total numbers of rears and line crossings: did not change significantly, showing that the drug was not sedative

## NCCc1ccc(O)c(O)c1 [dopamine, reference compound]
Sigma receptor
  displacement of [3H]DTG: no significant displacement
[1]
  effect on [3H]AZ-DTG labeling of the 29 kD polypeptide: unaffected

## N=C(Nc1cccc2ccc(=O)oc12)NC12CC3CC(CC(C3)C1)C2 [N-(Adamantan-1-yl)-N'-(8-coumarinyl)-guanidine]
Sigma receptor; [3]
  IC50: 0.0439 µM
[3H]MK-801
  IC50: 6.7 µM

## N=C(Nc1ccc2oc(=O)ccc2c1)NC12CC3CC(CC(C3)C1)C2 [N-(Adamantan-1-yl)-N'-(6-coumarinyl)-guanidine]
Sigma receptor; [2]
  IC50: 0.0219 µM
Sigma receptor; [3]
  IC50: 0.0219 µM
[3H]MK-801
  IC50: > 10 µM

## Cc1ccccc1NC(=N)N[C@H]1C[C@@H]2CC[C@H]1C2 (relative stereo) [N-(exo-2-norbornyl)-N'-(2-methylphenyl)guanidine]
Sigma receptor; [2]
  IC50: 0.007 µM
Anxiety behavior of mice; oral
  latency to entering the dark compartment: increase in the latency to entering the dark compartment
  numbers of line crossings and/or rears in the light compartment (vs dark): increase in the number of rears in the light compartment
  proportion of time in light area / percentage of time in black compartment: decrease in the percentage time spent in the black compartment
  sedation: total numbers of rears and line crossings: did not decrease significantly, showing that the drug was not sedative
Anxiety behavior of mice; s.c.
  latency to entering the dark compartment: increase in the latency to entering the dark compartment when administered at 0.1 mg/kg
  numbers of line crossings and/or rears in the light compartment (vs dark): increase in the number of rears in the light compartment
  sedation: total numbers of rears and line crossings: did not decrease significantly, showing that the drug was not sedative

## N=C(Nc1cccc2c1CCC2)Nc1cccc2c1CCC2 [N,N'-Di-(4-indanyl)-guanidine]
Sigma receptor; [2]
  IC50: 0.0285 µM
Sigma receptor; [3]
  IC50: 0.0285 µM
[3H]MK-801
  IC50: 0.506 µM
